PMC9276671, “A first-in-human Phase I dose-escalation trial of the novel therapeutic peptide, ALM201, demonstrates a favourable safety profile in unselected patients with ovarian cancer and other advanced solid tumours” (British Journal of Cancer, 2022)
Read-outs that look alike come from different tables or passages of the source. No end group written: not given here.

Legend:
[1] = ref Investigator brochure (IB), cited from earlier work
Experimental: page 40: Almac Discovery Confidential (i) a […] dose ranging study in rats, dose range 5-50 mg/kg/day; (ii) a non-GLP dose ranging study in dogs, dose range 15-50 mg/kg/day; (iii) a GLP 28-day study in rats, dose range 5-50 mg/kg/day; (iv) a GLP 28-day study in dogs, dose range 5-50 mg/kg/day; (v) a non-GLP wound healing study in rats, dose range 5-50 mg/kg/day. In the rat dose range finding study, administration of doses of up to 50 mg/kg/day for 14 days were assessed. ALM201 was well tolerated at all doses and the No Observable Adverse Effect Level (NOAEL) was considered to be 50 mg/kg/d ...

[2] = Rat, 5mg/kg SC, male animals; ref Investigator brochure (IB); cited from earlier work
[3] = Dog, 5mg/kg SC, male animals; ref Investigator brochure (IB); cited from earlier work
heparinised human blood = details: alone or with Staphylococcus Enterotoxin B, 10^-8 to 10^-6 M, ref Investigator brochure (IB); cited from earlier work
xenograft = details: rat xenograft model, 3 mg/kg; ref Investigator brochure (IB); cited from earlier work
Experimental: page 41: Almac Discovery Confidential 1.5 Rationale for Dose Selection Based on GLP, 28-day, repeat dose toxicology studies in the dog and rat, the NOAEL for ALM201 was not defined at the maximum dose evaluated of 50 mg/kgxiv. Therefore, based on standard allometric scaling based on the FDA guidelines (FDA, 2005 ), it is predicted that a human equivalent dose (HED) range of 8–28 mg/kg could be given without any drug-related adverse effects. Assuming a starting dose calculation based on a 10-fold safety margin in the most conservative model (the rat); the starting dose would be 0.8 mg/kg. Due t ...

[4] = Safety and tolerability: adverse events and DLT (CTCAE v4.03); format: in vivo
Experimental: Eligible participants were enrolled in sequential cohorts treated with a subcutaneous (SC) injection of ALM201, with close monitoring for safety and dose-limiting toxicities (DLTs). Dose levels were not weight-adjusted, and the starting dose for the study was 10 mg ALM201 given on days 1–5, 8–12 and 15–19 every 21 days, i.e., weekday dosing to be given continuously. […] Every new dose cohort was evaluated for the occurrence of a DLT during treatment cycle 1.
This study commenced with an accelerated dose-escalation design, then switched to a conventional algorithm (3 + 3 patients per dose level) to identify the maximum tolerated dose (MTD), escalating on observation of 0/3 or 1/6 DLTs, and de-escalating if two or more patients with DLTs were encountered.
Safety assessments included physical examination, vital signs, biochemistry and haematology laboratory screens, plus immunogenicity testing. Safety evaluations were conducted weekly during each treatment cycle, with DLT assessed during cycle one only. All events and suspected DLTs were graded according to the Common Toxicity Criteria for Adverse Events (CTCAE), version 4.03.

advanced solid tumours = assay: Tumour response by RECIST 1.1; format: in vivo, human
Experimental: Tumour assessment by imaging (CT scan or MRI scan as appropriate for tumour type) was assessed in all patients at initial screening and after every two cycles of treatment (i.e., every 6 weeks) during cycles 1–8 (i.e., first 24 weeks), and then after every four cycles of treatment (i.e., every 12 weeks) from cycle nine onwards. Scans were reported according to RECIST version 1.1.

HMEC-1 = details: protocol Table 3; ref Investigator brochure (IB); read-out: Tube formation IC50; cited from earlier work
Excerpt: (§1) ALM201 also had no effect on cytok ...

[5] = test system: invasion stimulated by VEGF, EGF, FGF, PFGF and FCS; details: 10^-9 M (exponent printed displaced), ref Investigator brochure (IB); cited from earlier work
Excerpt: as §1

HMEC-1 cells = details: same concentration range, range of growth factors, ref Investigator brochure (IB); cited from earlier work
Excerpt: as §1

proliferation = details: protocol Table 3; ref Investigator brochure (IB); cited from earlier work
Excerpt: as §1

rat aorta = details: ex vivo rat aorta in Matrigel, 7-day period, depending on the parameter assessed; ref Investigator brochure (IB); read-out: IC50 for tubule out-growth parameters; cited from earlier work
Excerpt: as §1

cell viability = details: protocol Table 2; ref Investigator brochure (IB); cited from earlier work
Excerpt: as §1

cell cycle = details: protocol Table 2 (IC50 (nM)); ref Investigator brochure (IB); cited from earlier work
Excerpt: as §1

[6] = test system: angiogenesis and cell migration and invasion; details: cited from earlier work
Excerpt: Early investigations into the mechanism of action for ALM201 reported that the peptide is internalised into CD44-expressing cells and targets microtubules inhibiting migration and invasion in cancer and endothelial cells, similar to vascular disrupting agents. However, it was unclear if this was the principal mechanism of inhibiting angiogenesis or if other factors, such as inhibiting endothelial cell migration and inva ...

IRQQPRDPPTETLELEVSPDPAS [ALM201]
NOAEL ([1]; beagle dog dose range finding, 15 and 50 mg/kg/day for 14 days): 50 mg/kg/day
NOAEL ([1]; dog GLP 28 days plus recovery, 5, 15 and 50 mg/kg/day): 50 mg/kg/day
NOAEL ([1]; rat GLP 28 days plus recovery, 5, 15 and 50 mg/kg/day): 50 mg/kg/day
NOAEL ([1]; rat dose range finding study, up to 50 mg/kg/day for 14 days): 50 mg/kg/day
Effect on wound closure or tensile strength ([1]; rat, 5 and 50 mg/kg/day for up to 18 days, versus vehicle controls): No effect
AUC24 [2]: 4320 ng·h/mL
Cmax [2]: 3400 ng/mL
Half-life [2]: 36 min
Tmax [2]: 30 min
AUC24 [3]: 7300 ng·h/mL
Cmax [3]: 2030 ng/mL
Half-life [3]: 144 min
Tmax [3]: 60 min
Effect on cytokine release and T-cell proliferation (heparinised human blood): no effect
Anti-tumour activity (xenograft): significant anti-tumour
Maximum tolerated dose (MTD) ([4]; SC weekday doses of up to 300 mg): not reached
CTCAE grade 4-related toxicities ([4]; all dose levels): no CTCAE grade 4-related toxicities
Thrombotic events, number of patients ([4]; cohort 8 (100 mg) and cohort 1 (10 mg)): two
Dose-limiting toxicities (DLTs) ([4]; cycle 1, 10-300 mg SC): No DLTs
Abdominal wall bruising, causality ([4]; in vivo): Definite
Anorexia, causality ([4]; in vivo): Possible
Arthralgia, causality ([4]; in vivo): Possible
Blurred vision, causality ([4]; in vivo): Probable
Depression, causality ([4]; in vivo): Possible
Diarrhoea, causality ([4]; in vivo): Possible
Fatigue, causality ([4]; in vivo): Possible
Headache, causality ([4]; in vivo): Possible
Hot flushes, causality ([4]; in vivo): Possible
Injection-site erythema, causality ([4]; in vivo): Definite
Injection-site immune reaction, causality ([4]; in vivo): Definite
Injection-site pain, causality ([4]; in vivo): Definite
Nausea, causality ([4]; in vivo): Possible
Oral candidiasis, causality ([4]; in vivo): Possible
Pedal oedema, causality ([4]; in vivo): Possible
Pruritus, causality ([4]; in vivo): Definite
Pulmonary embolus, causality ([4]; in vivo): Possible
Pyrexia, causality ([4]; in vivo): Possible
Urinary tract infection, causality ([4]; in vivo): Possible
Venous thrombus, causality ([4]; in vivo): Possible
Vomiting, causality ([4]; in vivo): Possible
Stable disease / disease control rate (advanced solid tumours; 7/20 patients, stable disease for up to four cycles): 35%
Disease progression (advanced solid tumours; 12 of 20 patients): 60%
Partial or complete responses (advanced solid tumours; all patients): No partial or complete responses
Patients with SD until the end of cycle 4 (advanced solid tumours; in vivo): Three
IC50 (HMEC-1): 0.082 nM
Invasion [5]: inhibit invasion
Effect on cell proliferation or cell cycle (HMEC-1 cells): no effect
Proliferation IC50 (proliferation): No effect
IC50 (rat aorta): 0.005 to 0.02 nM
Cell viability IC50 (cell viability): No effect
Cell cycle arrest (cell cycle): No effect
Activity in standard in vitro and ex vivo assays of angiogenesis, cell migration and invasion [6]: low picomolar activity
